# Assay results reported in ChEMBL document CHEMBL3046931, “Synthesis, antioxidant, and antitumor evaluation of certain new N-substituted-2-amino-1,3,4-thiadiazoles” (Med Chem Res, 2013).
# Test system: Ehrlich
# Test: In vitro antitumor activity against Mus musculus (mouse) Ehrlich ascites cell assessed as dead tumor cells by trypan blue exclusion test
# Assay type: functional
SMILES,ED25 [microg/cm3],ED50 [microg/cm3],ED100 [microg/cm3]
c1nnc(/N=N/Nc2nncs2)s1,19.3,33,61.5
O=Cc1ccc(Nc2nncs2)cc1,8.7,17.9,38.3
Clc1ccc(C/N=c2/scnn2Cc2ccc(Cl)cc2)cc1,7.4,16,29
Cc1cc(C)c2c(n1)nn1c(N)c(C(=O)Nc3nncs3)nnc21,25,48.2,80.7
CC1=NN(c2ccccc2)C(=O)/C1=N\Nc1nncs1,10,21,42.1
Nc1nnc(SCC(=O)Nc2nncs2)s1,14.4,27,42.5
Cc1cc(C)c2c(NN/C=C(\C#N)C(=O)Nc3nncs3)n[nH]c2n1,5,10.2,19
O=C(CN1CCN(CC(=O)Nc2nncs2)CC1)Nc1nncs1,8.7,18,37
O=c1[nH]cc(F)c(=O)[nH]1 [FLUOROURACIL],40,63,97
Clc1ccc(-c2nnnn2-c2nncs2)cc1,12,23,41
O=C(Nc1nncs1)c1ccc(Cl)cc1,11,24,52
CC1=NN(c2ccccc2)C(=O)/C1=C/c1ccc(Nc2nncs2)cc1,8.8,17,31
O=C(CCl)Nc1nncs1,7.8,16,28
CN(C)/C=C(\C#N)C(=O)Nc1nncs1,7.8,14.1,26
O=C(CNc1nncs1)Nc1nncs1,9.4,18.9,39.1
Nc1nncs1,37,56,92.9
Cl/C(=N\c1nncs1)c1ccc(Cl)cc1,6.9,13,6.9
O=C(CN1CCN(c2ccccc2)CC1)Nc1nncs1,13,24,46.1

# Test system: not listed separately
# Test: Pro-oxidant activity assessed as bleomycin-Fe3+ complex-induced DNA damage at 1 mg/ml after 1 hr
# Assay type: ADME
row,SMILES,OD
1,c1nnc(/N=N/Nc2nncs2)s1,0.103
2,O=Cc1ccc(Nc2nncs2)cc1,0.1
3,Clc1ccc(C/N=c2/scnn2Cc2ccc(Cl)cc2)cc1,0.121
4,Clc1ccc(CNc2nncs2)cc1,0.108
5,Nc1nnc(SCC(=O)Nc2nncs2)s1,0.101
6,Cc1cc(C)c2c(NN/C=C(\C#N)C(=O)Nc3nncs3)n[nH]c2n1,0.109
7,Nc1n[nH]cc1C(=O)Nc1nncs1,0.102
8,N#C/C(=C\c1ccc(N2CCCCC2)cc1)C(=O)Nc1nncs1,0.114
9,O=C(Nc1nncs1)c1ccc(Cl)cc1,0.1
10,O=C1O[C@H]([C@@H](O)CO)C(O)=C1O [ASCORBIC ACID],0.098
11,CC1=NN(c2ccccc2)C(=O)/C1=C/c1ccc(Nc2nncs2)cc1,0.105
12,N#CSCC(=O)Nc1nncs1,0.099
13,O=C(CCl)Nc1nncs1,0.102
14,CN(C)/C=C(\C#N)C(=O)Nc1nncs1,0.127
15,N#CCC(=O)Nc1nncs1,0.08
16,Nc1nncs1,0.09
17,O=C(CN1CCN(c2ccccc2)CC1)Nc1nncs1,0.096

# Test system: not listed separately
# Test: Antioxidant activity assessed as inhibition of ABTS free radical formation at 2 mM by spectroscopic analysis (reference value: 0%)
# Assay type: functional
row,SMILES,inhibition [%]
1,O=C1O[C@H]([C@@H](O)CO)C(O)=C1O [ASCORBIC ACID],88.5

# Test system: not listed separately
# Test: Antioxidant activity assessed as inhibition of ABTS free radical formation at 1 mg/ml by spectroscopic analysis (reference value: 0%)
# Assay type: functional
row,SMILES,inhibition [%]
1,c1nnc(/N=N/Nc2nncs2)s1,24.5
2,O=Cc1ccc(Nc2nncs2)cc1,26.5
3,Clc1ccc(C/N=c2/scnn2Cc2ccc(Cl)cc2)cc1,38
4,Clc1ccc(CNc2nncs2)cc1,0.354
5,Nc1nnc(SCC(=O)Nc2nncs2)s1,20.7
6,Cc1cc(C)c2c(NN/C=C(\C#N)C(=O)Nc3nncs3)n[nH]c2n1,51.8
7,Nc1n[nH]cc1C(=O)Nc1nncs1,18.9
8,N#C/C(=C\c1ccc(N2CCCCC2)cc1)C(=O)Nc1nncs1,28.7
9,O=C(Nc1nncs1)c1ccc(Cl)cc1,26.5
10,CC1=NN(c2ccccc2)C(=O)/C1=C/c1ccc(Nc2nncs2)cc1,41.6
11,N#CSCC(=O)Nc1nncs1,25.7
12,O=C(CCl)Nc1nncs1,27.1
13,CN(C)/C=C(\C#N)C(=O)Nc1nncs1,23.7
14,N#CCC(=O)Nc1nncs1,70.9
15,Nc1nncs1,28.5
16,O=C(CN1CCN(c2ccccc2)CC1)Nc1nncs1,25.7
